Consider eight compounds from patent publication US20100285145A1, “GPR 119 MODULATORS” (PFIZER INC, priority 2009, published 2010).

Several values for one entry are separate records, joined by “and”; a condition that tells them apart may be missing. Identical values can stand only once.

What all share (type): cell-based
In assay [1] the target is T1, human GPR119 (Homo sapiens, UniProt Q8TDV5).
T1 sequence (Q8TDV5 1-335): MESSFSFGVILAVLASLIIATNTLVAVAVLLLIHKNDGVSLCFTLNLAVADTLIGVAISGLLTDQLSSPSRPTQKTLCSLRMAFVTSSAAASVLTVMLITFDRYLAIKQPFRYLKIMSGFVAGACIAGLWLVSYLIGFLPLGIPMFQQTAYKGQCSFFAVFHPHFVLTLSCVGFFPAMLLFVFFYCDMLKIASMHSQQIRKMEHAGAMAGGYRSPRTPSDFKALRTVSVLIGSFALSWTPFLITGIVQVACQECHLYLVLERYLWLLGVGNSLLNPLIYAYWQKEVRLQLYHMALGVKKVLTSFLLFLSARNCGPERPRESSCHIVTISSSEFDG
Put plainly: β-Arrestin PathHunter assay (U2OS hGPR119 β-arrestin cells). The method, then:
GPR119 agonist activity was also determined with a cell-based assay utilizing DiscoverX PathHunter β-arrestin cell assay technology and their U2OS hGPR119 β-arrestin cell line (DiscoverX Cat # 93-0356C3). In this assay, agonist activation is determined by measuring agonist-induced interaction of β-arrestin with activated GPR119. A small, 42 amino acid enzyme fragment, called ProLink was appended to the C-terminus of GPR119. Arrestin was fused to the larger enzyme fragment, termed EA (Enzyme Acceptor). Activation of GPR119 stimulates binding of arrestin and forces the complementation of the two enzyme fragments, resulting in formation of a functional β-galactosidase enzyme capable of hydrolyzing substrate and generating a chemiluminescent signal.
Specifically, U2OS hGPR119 β-arrestin cells (DiscoverX 1×10^7/mL) are removed from cryopreservation and diluted in growth medium (Minimum essential medium (MEM; Gibco Cat # 11095-080), 10% heat inactivated fetal bovine serum (HIFBS; Sigma Cat # F4135-100), […] sodium pyruvate (Sigma Cat # S8636), 500 microg/mL G418 (Sigma Cat # G8168) and 250 microg/mL Hygromycin B (Invitrogen Cat # 10687-010). The cell concentration was adjusted to 1.66×10^5 cells/mL and 30 mLs of this suspension was added to a T-175 flask and incubated at 37 degrees Celsius in a humidified environment in 5% carbon dioxide. After 24 hours, the cells were removed from the T-175 flask with enzyme-free cell dissociation buffer (Gibco cat #13151-014), centrifuged at 800×g and then re-suspended in plating medium (Opti-MEM I (Invitrogen/BRL Cat # 31985-070) and 2% charcoal dextran treated fetal bovine serum (CD serum; HyClone Cat # SH30068.03).
The cell concentration was adjusted to 2.5×10^5 cells/mL with plating medium and 20 microliters of this cell suspension (5000 cells) was added to each well of a white Greiner 384-well low volume assay plate (VWR cat #82051-458) and the plates were incubated at 37 degrees Celsius in a humidified environment in 5% carbon dioxide.
After 16 hours (overnight) the assay plates were removed from the incubator and varying concentrations of each compound to be tested (diluted in assay buffer (1×HBSS+CaCl2+MgCl2 (Gibco Cat # 14025-092), 20 mM HEPES pH 7.0 (Gibco Cat # 15630-080) and 0.1% BSA (Sigma Cat # A9576)) were added to the assay plate wells in a volume of 5 microliters (final DMSO concentration was 0.5%). After a 90 minute incubation at 37 degrees Celsius in a humidified environment in 5% carbon dioxide, 12 microliters of Galacton Star β-galactosidase substrate (PathHunter Detection Kit (DiscoveRx Cat # 93-0001); prepared as described in the manufacturers assay protocol) was added to each well of the assay plate. The plates were incubated at room temperature and after 60 minutes, changes in the luminescence were read with an Envision 2104 multilabel plate reader at 0.1 seconds per well. EC50 determinations were made from an agonist-response curves analyzed with a curve fitting program using a 4-parameter logistic dose response equation.

Assay [2] concerns the target T1, human GPR119. Put plainly: cAMP HTRF functional assay (hGPR119 HEK-CRE beta-lactamase cells). The arrangement: host or cells: HEK293-CRE beta-lactamase. Particulars: for EC50: HTRF cAMP, 30 min, 400 microM IBMX, each line a separate determination; for Emax: read-out: Intrinsic Activity (Human cAMP). As to the method:
GPR119 agonist activity was also determined with a cell-based assay utilizing an HTRF (Homogeneous Time-Resolved Fluorescence) cAMP detection kit (cAMP dynamic 2 Assay Kit; Cis Bio cat #62AM4PEC) that measures cAMP levels in the cell. The method is a competitive immunoassay between native cAMP produced by the cells and the cAMP labeled with the dye d2. The tracer binding is visualized by a Mab anti-cAMP labeled with Cryptate. The specific signal (i.e. energy transfer) is inversely proportional to the concentration of cAMP in either standard or sample.
Specifically, hGPR119 HEK-CRE beta-lactamase cells (Invitrogen 2.5×10^7/mL; the same cell line used in the beta-lactamase assay described above) are removed from cryopreservation and diluted in growth medium (Dulbecco's modified Eagle medium high glucose (DMEM; Gibco Cat # 11995-065), 1% charcoal dextran treated fetal bovine serum (CD serum; HyClone Cat # SH30068.03), 1×MEM Nonessential amino acids (Gibco Cat # 15630-080) and 25 mM HEPES pH 7.0 (Gibco Cat # 15630-080)). The cell concentration was adjusted to 1.5×10^5 cells/mL and 30 mLs of this suspension was added to a T-175 flask and incubated at 37 degrees Celsius in a humidified environment in 5% carbon dioxide. After 16 hours (overnight), the cells were removed from the T-175 flask (by rapping the side of the flask), centrifuged at 800×g and then re-suspended in assay medium (1×HBSS+CaCl2+MgCl2 (Gibco Cat # 14025-092) and 25 mM HEPES pH 7.0 (Gibco Cat # 15630-080)). The cell concentration was adjusted to 6.25×10^5 cells/mL with assay medium and 8 μl of this cell suspension (5000 cells) was added to each well of a white Greiner 384-well, low-volume assay plate (VWR cat #82051-458).
Varying concentrations of each compound to be tested were diluted in assay buffer containing 3-isobutyl-1-methylxanthin (IBMX; Sigma cat #15879) and added to the assay plate wells in a volume of 2 microL (final IBMX concentration was 400 microM and final DMSO concentration was 0.58%). Following 30 minutes incubation at room temperature, 5 microL of labeled d2 cAMP and 5 microL of anti-cAMP antibody (both diluted 1:20 in cell lysis buffer; as described in the manufacturers assay protocol) were added to each well of the assay plate. The plates were then incubated at room temperature and after 60 minutes, changes in the HTRF signal were read with an Envision 2104 multilabel plate reader using excitation of 330 nm and emissions of 615 and 665 nm. Raw data were converted to nM cAMP by interpolation from a cAMP standard curve (as described in the manufacturer's assay protocol) and EC50 determinations were made from an agonist-response curves analyzed with a curve fitting program using a 4-parameter logistic dose response equation.
In general terms: TR-FRET usually uses a lanthanide donor and a delayed reading to cut background.

The target in assay [3] is T1, human GPR119. Put plainly: β-Lactamase reporter functional assay (hGPR119 HEK293-CRE beta-lactamase cells). Details: host or cells: HEK293-CRE beta-lactamase; Emax: dose or concentration left out as unconfirmed. The conditions noted are these: for EC50: hGPR119 HEK293-CRE beta-lactamase cells, 16 h incubation, each line a separate determination, read-out: Human B-lactamase Functional EC50; for Intrinsic Activity (Human B-lactamase) / Emax: percent of maximal activity relative to standard GPR119 agonist at 10 micromolar; for Emax: read-out: Intrinsic Activity (Human B-lactamase). As to the method:
The assay for GPR119 agonists utilizes a cell-based (hGPR119 HEK293-CRE beta-lactamase) reporter construct where agonist activation of human GPR119 is coupled to beta-lactamase production via a cyclic AMP response element (CRE). GPR119 activity is then measured utilizing a FRET-enabled beta-lactamase substrate, CCF4-AM (Live Blazer FRET-B/G Loading kit, Invitrogen cat #K1027). Specifically, hGPR119-HEK-CRE-beta-lactamase cells (Invitrogen 2.5×10^7/mL) were removed from liquid nitrogen storage, and diluted in plating medium (Dulbecco's modified Eagle medium high glucose (DMEM; Gibco Cat # 11995-065), 10% heat inactivated fetal bovine serum (HIFBS; Sigma Cat # F4135), 1×MEM Nonessential amino acids (Gibco Cat # 15630-080), 25 mM HEPES pH 7.0 (Gibco Cat # 15630-080), 200 nM potassium clavulanate (Sigma Cat # P3494). The cell concentration was adjusted using cell plating medium and 50 microL of this cell suspension ([…]) was added into each well of a black, clear bottom, poly-d-lysine coated 384-well plate (Greiner Bio-One cat# 781946) and incubated at 37 degrees Celsius in a humidified environment containing 5% carbon dioxide. After 4 hours the plating medium was removed and replaced with 40 microL of assay medium (Assay medium is plating medium without potassium clavulanate and HIFBS). Varying concentrations of each compound to be tested was then added in a volume of 10 microL (final DMSO ≦0.5%) and the cells were incubated for 16 hours at 37 degrees Celsius in a humidified environment containing 5% carbon dioxide. Plates were removed from the incubator and allowed to equilibrate to room temperature for approximately 15 minutes. 10 microL of 6×CCF4/AM working dye solution (prepared according to instructions in the Live Blazer FRET-B/G Loading kit, Invitrogen cat #K1027) was added per well and incubated at room temperature for 2 hours in the dark. Fluorescence was measured on an EnVision fluorimetric plate reader, excitation 405 nm, emission 460 nm/535 nm. EC50 determinations were made from agonist-response curves analyzed with a curve fitting program using a 4-parameter logistic dose-response equation.

Where [4] appears, read: percent of maximal activity relative to standard GPR119 agonist at 10 micromolar.

In general, EC50 refers to the concentration giving half of the maximal effect. With `Cc1c(O[C@H]2CCN(C(=O)OC3(C)CC3)C[C@H]2F)ncnc1N1CCc2ncccc21` (racemic) [Example 19, 1-Methylcyclopropyl (3R,4S)-4-{[6-(2,3-dihydro-1H-pyrrolo[3,2-b]pyridin-1-yl)-5-methylpyrimidin-4-yl]oxy}-3-fluoropiperidine-1-carboxylate (racemic)], the EC50 at human GPR119 [1] (U2OS hGPR119 β-arrestin cells, 90 min, each line a separate determination, read-out: Human B-arrestin Functional EC50) stood at 6.31 nM; on human GPR119 [2], 19.4 nM. Further, the Emax at human GPR119 [1] (U2OS, percent of maximal activity relative to standard GPR119 agonist at 10 micromolar, read-out: Intrinsic Activity (Human B-arrestin)) stood at 74%; on human GPR119 [2] (setting [4]), 57.9%.

As to `CC1(OC(=O)N2CC[C@H](Oc3cc(N4CCc5nc(C(N)=O)ccc54)ncn3)[C@H](F)C2)CC1` (racemic) [Example 32, 1-Methylcyclopropyl (3R,4S)-4-{[6-(5-carbamoyl-2,3-dihydro-1H-pyrrolo[3,2-b]pyridin-1-yl)pyrimidin-4-yl]oxy}-3-fluoropiperidine-1-carboxylate], the EC50 on human GPR119 [2] was 273 nM. The Emax on human GPR119 [2] (setting [4]) is 147%.

For the compound `CC(C)OC(=O)N1C[C@H]2COC[C@@H](C1)[C@@H]2Oc1cc(N2CCc3cc(S(C)(=O)=O)ccc32)ncn1` [Example 2, Isopropyl 9-syn-({6-[5-(methylsulfonyl)-2,3-dihydro-1H-indol-1-yl]pyrimidin-4-yl}oxy)-3-oxa-7-azabicyclo[3.3.1]nonane-7-carboxylate], on human GPR119 [3], the EC50 is 343 nM and 51.3 nM and 38.2 nM; the “Intrinsic Activity (Human B-lactamase)” value turned out to be 106%; the Emax was 98%.

Consider `CC(C)OC(=O)N1C[C@H]2COC[C@@H](C1)[C@@H]2Oc1ncnc(N2CCc3cc(S(C)(=O)=O)ccc32)c1C#N` [Example 4], for which, at human GPR119 [3], the EC50 was 9.16 nM and the Emax was 87.9%. For the same compound, on human GPR119 [2] (setting [4]), the “Intrinsic Activity (Human cAMP)” value is 36% and 35.3%; the Emax is 36.2%.

For the compound `CC(C)OC(=O)N1C[C@H]2COC[C@@H](C1)[C@H]2Oc1ncnc(N2CCc3cc(S(C)(=O)=O)ccc32)c1C#N` [Example 5], at human GPR119 [3], the EC50 was 11.5 nM and 12.5 nM; the “Intrinsic Activity (Human B-lactamase)” value was determined as 100%; the Emax is 98.1%. In addition, the concentration giving a half-maximal response (EC50) at human GPR119 [2] was 357 nM and 602 nM and 1750 nM and 1330 nM and 1800 nM and 3140 nM.

On to `CC(C)OC(=O)N1CCC(Oc2cc(N3CCc4cc(S(C)(=O)=O)cnc43)ncn2)CC1` [Example 14, Isopropyl 4-({6-[5-(methylsulfonyl)-2,3-dihydro-1H-pyrrolo[2,3-b]pyridin-1-yl]pyrimidin-4-yl}oxy)piperidine-1-carboxylate], for which, on human GPR119 [3], the EC50 was 7270 nM and the Emax came out at 98.1%. On human GPR119 [2], the EC50 is over 10000 nM.

With `Cc1c(O[C@H]2[C@@H]3COC[C@H]2CN(C(=O)OC(C)C)C3)ncnc1N1CCc2cc(S(C)(=O)=O)ccc21` [Example 24, Isopropyl (9-anti)-9-({5-methyl-6-[5-(methylsulfonyl)-2,3-d hydro-1H-indol-1-yl]pyrimidin-4-yl}oxy)-3-oxa-7-azabicyclo[3.3.1]nonane-7-carboxylate], on human GPR119 [3], the EC50 is 111 nM and the Emax was 100%.

Compound `CN(C)C(=O)c1ccc2c(n1)CCN2c1cc(OC2CCN(C(=O)OC3(C)CC3)CC2)ncn1` [Example 33, 1-Methylcyclopropyl 4-({6-[5-(dimethylcarbamoyl)-2,3-dihydro-1H-pyrrolo[3,2-b]pyridin-1-yl]pyrimidin-4-yl}oxy)piperidine-1-carboxylate] had a concentration giving a half-maximal response (EC50) on human GPR119 [2] of 1550 nM. Further, the Emax at human GPR119 [2] (setting [4]) was 154%.
